Experimental findings from ChEMBL document CHEMBL5528046, “Discovery of Novel PROTAC Degraders of p300/CBP as Potential Therapeutics for Hepatocellular Carcinoma” (J Med Chem, 2024) are described below.

Structures are written as SMILES. Activity calls are given as the source filed them. The calls are words filed in the database; no cut-off is given here. Bounds are passed on as bounds.

The target of assay [1] is T1, Protein cereblon/Histone acetyltransferase p300 (Homo sapiens, UniProt Q09472+Q96SW2). Briefly: PROTAC activity at CRBN/p300 in human SK-HEP1 cells assessed as induction of p300 protein degradation at 0.01 uM incubated for 24 hrs relative to control. The format is cell-based.
T1 sequence (Q09472 2-2414 limits assumed): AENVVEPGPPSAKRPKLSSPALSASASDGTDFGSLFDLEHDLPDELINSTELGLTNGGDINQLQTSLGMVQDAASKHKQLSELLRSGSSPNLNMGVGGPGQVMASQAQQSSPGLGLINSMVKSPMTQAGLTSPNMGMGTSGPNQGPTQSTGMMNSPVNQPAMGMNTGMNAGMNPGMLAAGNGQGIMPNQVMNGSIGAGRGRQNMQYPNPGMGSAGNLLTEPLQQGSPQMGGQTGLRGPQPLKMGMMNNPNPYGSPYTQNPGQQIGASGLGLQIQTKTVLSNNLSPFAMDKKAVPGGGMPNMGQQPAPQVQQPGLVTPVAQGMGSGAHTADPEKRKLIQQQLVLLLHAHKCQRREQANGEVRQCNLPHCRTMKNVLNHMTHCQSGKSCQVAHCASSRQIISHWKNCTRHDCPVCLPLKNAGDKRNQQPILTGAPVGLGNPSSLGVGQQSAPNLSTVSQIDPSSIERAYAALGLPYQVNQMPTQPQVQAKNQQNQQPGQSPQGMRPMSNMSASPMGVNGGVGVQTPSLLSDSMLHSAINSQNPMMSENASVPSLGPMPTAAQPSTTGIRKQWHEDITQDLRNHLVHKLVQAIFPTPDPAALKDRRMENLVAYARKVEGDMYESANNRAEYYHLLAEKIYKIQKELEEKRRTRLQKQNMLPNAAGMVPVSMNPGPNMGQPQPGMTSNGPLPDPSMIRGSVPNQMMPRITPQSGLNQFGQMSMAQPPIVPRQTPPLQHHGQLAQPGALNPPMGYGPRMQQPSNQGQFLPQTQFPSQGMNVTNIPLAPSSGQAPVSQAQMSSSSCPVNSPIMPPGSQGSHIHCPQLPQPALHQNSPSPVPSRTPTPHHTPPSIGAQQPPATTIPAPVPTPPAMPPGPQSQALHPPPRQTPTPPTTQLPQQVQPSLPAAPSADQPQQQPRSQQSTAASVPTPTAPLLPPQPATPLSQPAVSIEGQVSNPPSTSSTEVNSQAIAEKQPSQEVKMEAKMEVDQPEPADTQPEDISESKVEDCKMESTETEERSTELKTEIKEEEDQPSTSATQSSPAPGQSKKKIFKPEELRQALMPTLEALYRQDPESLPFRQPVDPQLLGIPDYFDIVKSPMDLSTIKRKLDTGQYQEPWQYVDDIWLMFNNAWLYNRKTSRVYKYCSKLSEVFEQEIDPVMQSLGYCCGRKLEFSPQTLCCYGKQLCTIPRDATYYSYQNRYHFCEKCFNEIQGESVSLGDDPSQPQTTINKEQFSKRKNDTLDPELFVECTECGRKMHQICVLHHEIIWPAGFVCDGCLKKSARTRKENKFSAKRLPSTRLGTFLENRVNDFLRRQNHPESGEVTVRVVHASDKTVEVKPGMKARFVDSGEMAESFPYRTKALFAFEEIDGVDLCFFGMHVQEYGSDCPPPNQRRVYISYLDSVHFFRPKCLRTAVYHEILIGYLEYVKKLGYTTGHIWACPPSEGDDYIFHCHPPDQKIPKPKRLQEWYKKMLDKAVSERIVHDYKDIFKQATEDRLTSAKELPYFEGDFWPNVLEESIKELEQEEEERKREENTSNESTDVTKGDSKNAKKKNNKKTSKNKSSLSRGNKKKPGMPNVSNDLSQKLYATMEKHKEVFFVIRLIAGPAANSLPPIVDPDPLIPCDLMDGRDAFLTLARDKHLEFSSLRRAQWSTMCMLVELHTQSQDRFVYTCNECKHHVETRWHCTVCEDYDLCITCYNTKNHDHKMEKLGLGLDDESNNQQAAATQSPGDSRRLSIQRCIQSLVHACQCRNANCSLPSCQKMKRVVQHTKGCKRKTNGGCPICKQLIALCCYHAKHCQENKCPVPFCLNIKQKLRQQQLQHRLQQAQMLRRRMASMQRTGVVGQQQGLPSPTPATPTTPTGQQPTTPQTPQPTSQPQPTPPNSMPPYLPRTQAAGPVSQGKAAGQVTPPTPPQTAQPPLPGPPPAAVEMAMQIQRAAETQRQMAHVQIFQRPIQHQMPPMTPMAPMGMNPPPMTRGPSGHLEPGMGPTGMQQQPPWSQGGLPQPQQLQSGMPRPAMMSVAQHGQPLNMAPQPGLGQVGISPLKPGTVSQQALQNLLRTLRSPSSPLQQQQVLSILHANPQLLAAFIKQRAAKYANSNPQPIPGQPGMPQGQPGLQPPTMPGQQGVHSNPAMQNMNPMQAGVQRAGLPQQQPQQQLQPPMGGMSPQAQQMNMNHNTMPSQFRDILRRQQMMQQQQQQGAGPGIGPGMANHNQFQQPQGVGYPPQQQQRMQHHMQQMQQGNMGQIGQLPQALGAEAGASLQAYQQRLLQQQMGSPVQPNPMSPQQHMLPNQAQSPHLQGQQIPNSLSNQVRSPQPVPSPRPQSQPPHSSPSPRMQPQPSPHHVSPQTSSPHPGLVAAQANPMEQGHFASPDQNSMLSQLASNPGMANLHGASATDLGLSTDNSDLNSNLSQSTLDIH
T1 sequence (Q96SW2 whole entry partner): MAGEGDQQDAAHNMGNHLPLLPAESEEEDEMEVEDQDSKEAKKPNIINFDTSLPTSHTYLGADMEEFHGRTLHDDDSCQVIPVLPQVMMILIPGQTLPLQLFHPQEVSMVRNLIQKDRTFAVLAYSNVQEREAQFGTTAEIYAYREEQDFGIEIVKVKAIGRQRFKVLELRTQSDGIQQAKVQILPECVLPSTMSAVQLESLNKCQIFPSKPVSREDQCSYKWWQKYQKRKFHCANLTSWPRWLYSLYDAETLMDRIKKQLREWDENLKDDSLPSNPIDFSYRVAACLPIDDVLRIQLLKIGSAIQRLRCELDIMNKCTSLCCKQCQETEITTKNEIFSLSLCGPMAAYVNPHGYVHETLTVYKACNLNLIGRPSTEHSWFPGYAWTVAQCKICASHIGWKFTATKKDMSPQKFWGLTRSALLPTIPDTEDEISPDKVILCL
The target of assay [2] is T1, Protein cereblon/Histone acetyltransferase p300. Briefly: PROTAC activity at CRBN/p300 in human SK-HEP1 cells assessed as induction of p300 protein degradation at 1 uM incubated for 24 hrs relative to control. The format is cell-based.
The target is the same in assay [3]. Briefly: PROTAC activity at CRBN/p300 in human SK-HEP1 cells assessed as induction of p300 protein degradation at 0.1 uM incubated for 24 hrs relative to control. In kind it is cell-based.
Assay [4] concerns SK-HEP1. Description: Antiproliferative activity against human SK-HEP1 cells assessed as inhibition of cell growth incubated for 5 days by CCK-8 assay. The conditions noted are these: SK-HEP1, 120 h. The format is functional, cell-based.
The nature of assay [5]: Antiproliferative activity against human JHH7 cells assessed as inhibition of cell growth incubated for 5 days by CCK-8 assay. The format is functional, cell-based. The conditions noted are these: JHH7, 120 h.
The test system of assay [6] is SK-HEP1. Briefly: Induction of cell cycle arrest at G2/M phase in human SK-HEP1 cells assessed as reduction in CDK6 protein level at 2 uM incubated for 24 hrs by immunoblotting analysis (reference value: 100%). In kind it is functional. More on the design: scale not given: the % may be the effect or the level left.
Assay [7] relates to SK-HEP1. Briefly: Induction of cell cycle arrest at G2/M phase in human SK-HEP1 cells assessed as SKP2 protein level at 2 uM incubated for 24 hrs by immunoblotting analysis (reference value: 100%). In kind it is functional. (In general: In western blotting, separated proteins are transferred to a membrane and probed.)
Assay [8] deals with Mus musculus. Briefly: In vivo PROTAC activity at CRBN/p300 in nude mouse xenografted with human SK-HEP1 cells assessed as reduction in p300 protein level in tumor at 50 mg/kg, ip measured after 24 hrs by immunoblotting analysis. The format is functional, organism-based. (In general: Xenograft models place foreign cells or tissue in a host animal.)
The target of assay [9] is T1, Protein cereblon/Histone acetyltransferase p300. Description: PROTAC activity at CRBN/p300 in human SK-HEP1 cells assessed as increase in protein ubiquitination at 2 uM incubated for 24 hrs by immunoblotting analysis (reference value: 100%). The format is cell-based.
The target of assay [10] is CREB-binding protein/Histone acetyltransferase p300 (Homo sapiens, UniProt Q09472+Q92793). Description: Inhibition of p300/CBP (unknown origin) using histone H3 (1 to 21 residues) as substrate incubated for 90 mins by AlphaLISA assay. In kind it is protein assay. Background: In Alpha technology, singlet oxygen from a donor bead excites a nearby acceptor bead.
Assay [11] addresses T1, Protein cereblon/Histone acetyltransferase p300. Briefly: PROTAC activity at CRBN/p300 in human SK-HEP1 cells assessed as increase in protein ubiquitination at 2 uM pretreated with MG132 at 1 uM followed by compound treatment and further incubated for 24 hrs by immunoblotting analysis (reference value: 100%). In kind it is cell-based.
Assay [12] addresses Protein cereblon/CREB-binding protein (Homo sapiens) (UniProt Q92793+Q96SW2). Briefly: In vivo PROTAC activity at CRBN/CBP in nude mouse xenografted with human SK-HEP1 cells assessed as reduction in CBP protein level in tumor at 50 mg/kg, ip measured after 24 hrs by immunoblotting analysis. The format is functional, organism-based.

Regarding `Cc1noc(C)c1-c1ccc2c(c1)nc([C@@H]1CCCC(=O)N1c1ccc(F)c(F)c1)n2C1CCN(C2CN(c3cccc4c3C(=O)N(C3CCC(=O)NC3=O)C4=O)C2)CC1` (stereo partly specified), the Activity in assay [1] is under 1%; in assay [2] it was 4%; in [3], under 1%.
In the case of `Cc1noc(C)c1-c1ccc2c(c1)nc([C@@H]1CCCC(=O)N1c1ccc(F)c(F)c1)n2C1CCN(C(=O)CCOCCOCCOCCOCCNc2cccc3c2C(=O)N(C2CCC(=O)NC2=O)C3=O)CC1` (stereo partly specified), the values for the Activity in assay [1], in assay [2] and in [3] were under 1%, 49% and under 1%, respectively.
With `Cc1noc(C)c1-c1ccc2c(c1)nc([C@@H]1CCCC(=O)N1c1ccc(F)c(F)c1)n2C1CCN(C(=O)CCOCCNc2cccc3c2C(=O)N(C2CCC(=O)NC2=O)C3=O)CC1` (stereo partly specified), the Activity is under 1% in [1], 15% in assay [2] and under 1% in assay [3].
Take `Cc1noc(C)c1-c1ccc2c(c1)nc([C@@H]1CCCC(=O)N1c1ccc(F)c(F)c1)n2C1CCN(C(=O)CCOCCOCCOCCNc2cccc3c2C(=O)N(C2CCC(=O)NC2=O)C3=O)CC1` (stereo partly specified): the figures for the Activity in assay [1], in assay [2] and in assay [3] were under 1%, 8% and under 1%, respectively.
As to `Cc1noc(C)c1-c1ccc2c(c1)nc([C@@H]1CCCC(=O)N1c1ccc(F)c(F)c1)n2C1CCN(C2CCN(c3cccc4c3C(=O)N(C3CCC(=O)NC3=O)C4=O)CC2)CC1` (stereo partly specified), the values for the Activity in assay [1], in assay [2] and in assay [3] were 4%, 9% and 6%, respectively.
Take `Cc1noc(C)c1-c1ccc2c(c1)nc([C@@H]1CCCC(=O)N1c1ccc(F)c(F)c1)n2C1CCN(C(=O)CNc2cccc3c2C(=O)N(C2CCC(=O)NC2=O)C3=O)CC1` (stereo partly specified): the Activity in assay [1] is under 1%; in assay [2], 18%; in assay [3], under 1%.
As for `Cc1noc(C)c1-c1ccc2c(c1)nc([C@@H]1CCCC(=O)N1c1ccc(F)c(F)c1)n2C1CCN(C(=O)CCOCCOCCNc2cccc3c2C(=O)N(C2CCC(=O)NC2=O)C3=O)CC1` (stereo partly specified), the results for the Activity in assay [1], in [2] and in assay [3] were under 1%, 25% and 2%, respectively.
Turning to `Cc1noc(C)c1-c1ccc2c(c1)nc([C@@H]1CCCC(=O)N1c1ccc(F)c(F)c1)n2C1CCN(C(=O)CCOCCOCCNc2ccc3c(c2)C(=O)N(C2CCC(=O)NC2=O)C3=O)CC1` (stereo partly specified), the results for the Activity in assay [1], in assay [2] and in assay [3] were under 1%, 29% and under 1%, respectively.
As for `Cc1noc(C)c1-c1ccc2c(c1)nc([C@@H]1CCCC(=O)N1c1ccc(F)c(F)c1)n2C1CCN(C(=O)CCOCCOCCOCCOCCNc2ccc3c(c2)C(=O)N(C2CCC(=O)NC2=O)C3=O)CC1` (stereo partly specified), the Activity in assay [1] is under 1%; in assay [2], 28%; in assay [3], under 1%.
Take `Cc1noc(C)c1-c1ccc2c(c1)nc([C@@H]1CCCC(=O)N1c1ccc(F)c(F)c1)n2C1CN(C2CN(c3ccc4c(c3)C(=O)N(C3CCC(=O)NC3=O)C4=O)C2)C1` (stereo partly specified): the Activity in [1] is under 1%; in assay [2], 27%; in [3], under 1%.
Turning to `Cc1noc(C)c1-c1ccc2c(c1)nc([C@@H]1CCCC(=O)N1c1ccc(F)c(F)c1)n2C1CCN(C(=O)CCOCCNc2ccc3c(c2)C(=O)N(C2CCC(=O)NC2=O)C3=O)CC1` (stereo partly specified), the Activity was under 1% in assay [1], 18% in assay [2] and under 1% in assay [3].
In the case of `Cc1noc(C)c1-c1ccc2c(c1)nc([C@@H]1CCCC(=O)N1c1ccc(F)c(F)c1)n2C1CCN(c2ccc3c(c2)C(=O)N(C2CCC(=O)NC2=O)C3=O)CC1` (stereo partly specified), the results for the Activity in assay [1], in [2] and in assay [3] were 6%, 32% and 9%, respectively.
The IC50 is the concentration that gives 50% inhibition. In the case of `CNC(=O)N1CCc2c(c(N3CCCc4cc(-c5cnn(C)c5)c(C(F)F)cc43)nn2C2CCN(C(=O)CCOCCOCCOCCOCCNc3ccc4c(c3)C(=O)N(C3CCC(=O)NC3=O)C4=O)CC2)C1` (stereo unspecified), the figures for the Activity in assay [1], in assay [2] and in [3] were 3%, 18% and 7%, respectively. Further, the IC50 in [4] and in assay [5] was over 20 µM throughout.
`CC(=O)N1CCC(n2c([C@@H]3CCCC(=O)N3c3ccc(F)c(F)c3)nc3cc(-c4c(C)noc4C)ccc32)CC1`: the Activity in assay [6] was determined as 101%; in assay [7], 117%; in assay [9] it was 105%; in assay [11] it was 97%. The outcome in assay [8] and in assay [12] was inactive. Also, the IC50 was 4.36 µM in assay [4], 0.026 µM in assay [10] and over 20 µM in assay [5].
Regarding `Cc1noc(C)c1-c1ccc2c(c1)nc([C@@H]1CCCC(=O)N1c1ccc(F)c(F)c1)n2C1CN(C2CN(c3cccc4c3C(=O)N(C3CCC(=O)NC3=O)C4=O)C2)C1` (stereo partly specified), the values for the Activity in assay [1], in [2] and in [3] were 3%, 23% and under 1%, respectively.
`Cc1noc(C)c1-c1ccc2c(c1)nc([C@@H]1CCCC(=O)N1c1ccc(F)c(F)c1)n2C1CCN(C(=O)CCOCCOCCOCCNc2ccc3c(c2)C(=O)N(C2CCC(=O)NC2=O)C3=O)CC1` (stereo partly specified): the results for the Activity in [1], in assay [2] and in [3] were under 1%, 19% and under 1%, respectively.
As for `Cc1noc(C)c1-c1ccc2c(c1)nc([C@@H]1CCCC(=O)N1c1ccc(F)c(F)c1)n2C1CCN(C(=O)CNc2ccc3c(c2)C(=O)N(C2CCC(=O)NC2=O)C3=O)CC1` (stereo partly specified), the values for the Activity in [1], in assay [2] and in [3] were under 1%, 3% and 2%, respectively.
Take `Cc1noc(C)c1-c1ccc2c(c1)nc([C@@H]1CCCC(=O)N1c1ccc(F)c(F)c1)n2C1CN(C2CCN(c3ccc4c(c3)C(=O)N(C3CCC(=O)NC3=O)C4=O)CC2)C1` (stereo partly specified): the Activity in [1] was 4%; in assay [2], 26%; in [3], under 1%.
Regarding `Cc1noc(C)c1-c1ccc2c(c1)nc([C@@H]1CCCC(=O)N1c1ccc(F)c(F)c1)n2C1CCN(c2cccc3c2C(=O)N(C2CCC(=O)NC2=O)C3=O)CC1` (stereo partly specified), the Activity in assay [1] was under 1%; in assay [2], 39%; in [3] it was under 1%.
As for `CO[C@H]1CC[C@H](n2c([C@@H]3CCCC(=O)N3c3ccc(F)c(F)c3)nc3cc(-c4c(C)noc4C)ccc32)CC1` [INOBRODIB], the Activity in [6] is recorded as 96%; in assay [7], 95%. In addition, the values for the IC50 in [4] and in [5] were 4.68 µM and 9.7 µM, respectively.
`CC(=O)N1CC(n2c([C@@H]3CCCC(=O)N3c3ccc(F)c(F)c3)nc3cc(-c4c(C)noc4C)ccc32)C1`: the IC50 in [10] was 0.025 µM.
Take `Cc1noc(C)c1-c1ccc2c(c1)nc([C@@H]1CCCC(=O)N1c1ccc(F)c(F)c1)n2C1CCN(C2CCN(c3ccc4c(c3)C(=O)N(C3CCC(=O)NC3=O)C4=O)CC2)CC1` (stereo partly specified): the figures for the Activity in assay [1], in [2] and in [3] were 9%, 38% and 5%, respectively.
For `Cc1noc(C)c1-c1ccc2c(c1)nc([C@@H]1CCCC(=O)N1c1ccc(F)c(F)c1)n2C1CN(C2CCN(c3cccc4c3C(=O)N(C3CCC(=O)NC3=O)C4=O)CC2)C1` (stereo partly specified), the results for the Activity in assay [1], in assay [2] and in assay [3] were under 1%, 28% and 8%, respectively.
